Experimental findings from US20050203061A1, “Prodrug, medicinal utilization thereof and process for producing the same” (priority 2002, published 2005) are described below.

What is called IC50 is the concentration that inhibits the measured activity by half. Low values mean greater potency, high ones weaker potency.

The structures appear in SMILES notation.

The test system of data set [1] is tracheal smooth muscle sample of a pig. As to the kind of experiment: In vitro inhibition of smooth muscle contraction induced with high concentration of KCl or carbachol. It counts as cell-based. On the procedure: (§1) The smooth muscle contraction induced in the tracheal smooth muscle sample of a pig with a high concentration of KCl or carbachol is inhibited with an IC50 of about 5 μM. […] In mice, rats, guinea pigs, dogs, and monkeys, as the result of blood analysis after the administration, not less than 99% of the compound was the glucuronic conjugate in any of the animal species.

Data set [2] concerns airway pressure of guinea pig sensitized with ovalbumin. As to the kind of experiment: Antigen (ovalbumin) induced airway contraction, immediate type asthmatic model, Konzett and Rossler method. The format is in vivo. The note with it: for inhibition compared to the control group: 10 min.
A short description of data set [3]: Blood analysis after oral administration (glucuronidation). The format is in vivo, and monkeys. As to conditions: mice, rats, guinea pigs, dogs, monkeys (any species). On the procedure: as §1
The subject of data set [4] is blood pressure and heart rate. The data set is described as follows: Blood pressure and heart rate after generalized inhalation exposure. The format is in vivo, Crj:CD(SD) rats. The note with it: inhalation 10 min; for increase of the heart rate: after five minutes. On the procedure:
The test was conducted by using Crj:CD(SD) rats with each group of 6 rats.
Surgery was carried out under the anesthesia of a mixed gas of oxygen, nitrous oxide and isoflurane, and one end of a polyethylene tube (PE50, Becton Dickinson) filled with physiological saline containing heparin (100 U/mL) was inserted into a common carotid artery and indwelled, and the other end was passed through the neighborhood of the neck of the back of the animal and connected to a cannula (Instec Co.) installed at the upper portion of an exposure chamber. This cannula was connected to a pressure transducer (P23XL. Gould Electronics) through a polyethylene tube. Further, the periphery of the polyethylene tube from the back of the rat up to this cannula was passed through a metallic spring to prevent a damage to be caused by the rat.
The administration of the drugs was conducted by preparing an exposure chamber and subjecting the rat with a cannula for measuring blood pressure in the indwelled state in the common cartoid artery to the generaliged inhalation exposure. This method is typically used in the generalized inhalation exposure.
The signals from the pressure transducer (P23XL, Gould Electronics) were led to a pressure processor signal conditioner (Gould Electronics) and recorded on a thermal array recorder (RS3400, Gould Electronics). The blood pressure and the heart rate were continuously recorded from before the initiation of administration to 20 minutes after the completion of administration. The administration of the drugs was initiated when not less than one hour after waking passed and the measurement parameters were stabilized.
Test substances were prepared in the same manner as in Example 1.
The representative values of each group were shown by mean values [[…] (S.E.)]. With the mean values of each group, the test of significance was conducted by the Tukey's multiple test. Further, the significant standard was regarded as 5%.

Data set [5] concerns airway pressure of guinea pig sensitized with ovalbumin. As to the kind of experiment: Antigen (ovalbumin) induced airway contraction, immediate type asthmatic model, Konzett and Rossler method. It counts as in vivo. The note with it: for increase ratio of the airway pressure / inhibition compared to the control group / increase in the airway pressure: 10 min; for inhibition of the immediate type asthmatic reaction (airway contraction): inhalation administration, guinea pigs. Here is the method:
In order to examine the bronchodilation effect of the glucuronides of salbutamol and isoprenaline of β2-agonists, an asthmatic model of a guinea pig sensitized with ovalumin was used. The test was conducted in accordance with the method of Konzett and Rossler (Arch. Exp. Pathol. Pharmakol., 195, 71-75, 1940).
On day 1 and day 8 after the initiation of sensitization, 500 μg/0.5 mL of ovalbumin was intramuscularly administered to both legs of a guinea pig and 1.5×10^5 cells/mL/animal of pertussis vaccine was intraperitoneally administered to effect active sensitization. On day 15 after the initiation of sensitization, 10 and 100 μg/site of ovalbumin were intradermally administered to the back of the guinea pig, respectively, to check the state of sensitization. Only the animals which were found positive by the sensitization check 6 hours after the intradermal sensitization were used in the experiment.
As the test substance, a drug solution was atomized by reducing the atomizing amount of an ultrasonic nebulizer to generate an aerosol, and the aerosol was then led into an exposure chamber (M.I.P.S. Co.), sucked at a rate of 3 L/min with the use of an air pump (SPP-3GA, Techno Takatsuki Co.) and administered to the guinea pig for 10 minutes by inhalation 40 minutes before the challenge of ovalbumin.
On day 10 to 23 after the initiation of sensitization, the animals were anesthetized with sodium pentobarbital (50 mg/kg, i.p.), and cannulation was conducted into the trachea. Through the tracheal cannula the animals were connected to an artificial respirator and the change in the ventilation pressure under artificial respiration (a ventilation amount of 10 mL/kg, a ventilation frequency of 50 times/min) was recorded as the airway pressure through a differential pressure transducer (Validyne, Gould Electronics) connected to the tracheal cannula on a recorder (WT-645G, Nihon Koden Co., Ltd.). The airway pressure was measured up to 10 minutes after the administration of ovalbumin. Then, cannulation was conducted into the right and left common carotid veins. From the left cannulation, gallamine (10 mg/mL) in a volume of 1 mL/kg was intravenously administered ([…]) to confirm the disappearance of spontaneous respiration. Thereafter, ovalbumin was intravenously administered to induce an antigen-antibody reaction. The measuring points of the airway pressure were set at a time before induction, and at 1, 3, 5, 7, and 10 minutes after induction. The ratio of the increase in the airway pressure is represented by the percentage of the values obtained by subtracting the observed value before induction from the observed value at each measuring time after induction based on the maximum occlusion at each measuring time.
As the test substances, salbutamol glucuronide and isoprenaline glucuronide were used. The salbutamol glucuronide is a white powder and the isoprenaline glucuronide is a brown crystal and both were stored at −80° C. under protection from light. As the control substances for comparison, each of sulbutamol chloride (hereinafter referred to as sulbutamol) and isoprenaline chloride (hereinafter referred to as isoprenaline) was used. The salbutamol and the isoprenaline are white powders and were stored at room temperature under protection from light. The test substances and the control substances for comparison were weighed in a necessary amount and dissolved in physiological saline (products of Otsuka Pharmaceutical Factory, Inc., Lot Nos. 1D78 and 1E84) to effect the preparation before using. The concentrations of the test substances and the control substances for comparison in solutions were rendered equivalent amounts by molar concentration. All solutions were nearly stable at room temperature for 24 hours.
The obtained experimental results were shown by mean values and standard deviations with airway pressure. As to the test of significance, the Student's t test without any correspondence was conducted when two groups were compared. […]

[6] abbreviates: inhalation 0.157%, after three minutes.
The mark [7] stands for this setting: 1 mg/L, during 30 minutes of measurement.
Where [8] appears, read: inhalation 0.1%, three minutes after antigen induction.
The mark [9] stands for this setting: inhalation 0.072%, after three minutes.
The mark [10] stands for this setting: 5 mg/L, during 30 minutes of measurement.

Regarding `CCC1Cc2c(O)cc(O)cc2Sc2ccccc21` (stereo not shown) [11-Ethyl-7,9-dihydroxy-10,11-dihydrobenzo[b,f]thiepin], in data set [1], the IC50 was approximately 5 µM. Besides, the airway contraction inhibition result in data set [2] (oral administration, 10 mg/kg) is reported as “showed the airway contraction inhibition”. Also, in data set [3], the “portion of the compound present as glucuronic conjugate in blood” value was “not less than 99%”.

Regarding `CC(C)NCC(O)c1ccc(O[C@@H]2OC(C(=O)O)[C@@H](O)C(O)C2O)c(O)c1` (stereo partly drawn) [isoprenaline glucuronide, 4-O-(β-D-Glucuronyl)-isoprenaline], in data set [4] (1.57 mg/L), the “effect on blood pressure and heart rate” value was “no effect was recognized at all”. For the same compound, in data set [5] (setting [6]), the “increase ratio of the airway pressure” value is on record as “about 10%” and the “inhibition compared to the control group” value is reported as “about 77%”. Further, in data set [5], the “inhibition of the immediate type asthmatic reaction (airway contraction)” value is recorded as “significantly inhibit”.

With `CC(C)NCC(O)c1ccc(O)c(O)c1` (stereo not shown) [isoprenaline], the “increase of the heart rate” value in data set [4] (1 mg/L) was “about 49%”. For the same compound, in data set [4] (setting [7]), the “maximum decrease of the blood pressure” value turned out to be 28% and the “maximum increase of the heart rate” value was 50%. In data set [4] (1 mg/L, five minutes after completion of inhalation), the “decrease of the blood pressure vs before the treatment” value was “about 27%”. Further, in data set [4] (isoprenaline 1 mg/L, five minutes after completion of inhalation), the blood pressure amounted to 72 mmHg. In addition, the “inhibition compared to the control group” value in data set [2] (setting [8]) is “about 73%”. For the same compound, the “increase in the airway pressure” value in data set [5] (setting [8]) is “about 12%”.

For the compound `CC(C)(C)NCC(O)c1ccc(O)c(CO[C@@H]2OC(C(=O)O)[C@@H](O)C(O)C2O)c1` (stereo partly drawn) [salbutamol glucuronide, 3-O-(β-D-Glucuronyl)-salbutamol], the “effect on blood pressure and heart rate” value in data set [4] (7.2 mg/L) is reported as “no effect was observed at all”. The “inhibition compared to the control group” value in data set [2] (setting [9]) is “about 56%”. In data set [5] (setting [9]), the “increase ratio of the airway pressure” value is listed as “about 20%”. Moreover, the “inhibition of the immediate type asthmatic reaction (airway contraction)” value in data set [5] is recorded as “significantly inhibit”.

As to `CC(C)(C)NCC(O)c1ccc(O)c(CO)c1` (stereo not shown) [salbutamol], in data set [4] (5 mg/L), the “increase of the heart rate” value is on record as “about 36%”. In addition, in data set [4] (setting [10]), the “maximum blood pressure decrease ratio” value is recorded as 27% and the “maximum heart rate increase ratio” value is on record as 39%. For the same compound, the “decrease of the blood pressure vs before inhalation (pre)” value in data set [4] (5 mg/L, five minutes after completion of inhalation) is “about 26%”. Also, the blood pressure in data set [4] (salbutamol 5 mg/L, five minutes after completion of inhalation) turned out to be 75 mmHg. Moreover, the “increase in the airway pressure” value in data set [5] (inhalation 0.05%, 40 min before challenge, three minutes after antigen induction) is recorded as “about 3%”. Further, the “inhibition compared to the control group” value in data set [5] (inhalation 0.05%, three minutes after antigen induction) is listed as “about 92%”.
